“And” between values parts separate entries of the source, which are not always exact repeats. Equal entries are not always repeated.
Tests used:
PDGFRβ = target: T1, PDGFRβ (Homo sapiens, UniProt P09619); test: PAE-PDGFRβ phosphorylation in PAE-PDGFRB cells assay; assay type: cell-based; settings: PAE cells overexpressing human PDGFRβ, PDGF-BB stimulated; read-out: PAE PDGFR autophos IC50
T1 construct: expressed in transfected cells; host or cells: porcine aorta endothelial (PAE) cells
How it was run: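 PAE cells overexpressing human PDGFRβ, serum-starved 16 h (0.1% FBS), compound 1 h at 37° C (0.5% DMSO), then 1 μg/mL PDGF-BB with 2 mM Na3VO4 for 8 min. Receptor captured by anti-PDGFRβ, phosphotyrosine detected by HRP-PY20/TMB at 450 nm; IC50 by four-parameter fit.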

HUVEC = test: bFGF HUVEC proliferation; assay type: cell-based, human; settings: bFGF stimulated HUVEC
KDR (VEGFR2) = target: T2, KDR (VEGFR2) (Homo sapiens, UniProt P35968); test: KDR (VEGFR2) phosphorylation in PAE-KDR cells assay; assay type: cell-based; settings: PAE cells overexpressing human KDR, VEGF stimulated; read-out: PAE KDR autophos IC50
T2 construct: expressed in transfected cells; host or cells: porcine aorta endothelial (PAE) cells
T2 sequence (P35968 20-1356): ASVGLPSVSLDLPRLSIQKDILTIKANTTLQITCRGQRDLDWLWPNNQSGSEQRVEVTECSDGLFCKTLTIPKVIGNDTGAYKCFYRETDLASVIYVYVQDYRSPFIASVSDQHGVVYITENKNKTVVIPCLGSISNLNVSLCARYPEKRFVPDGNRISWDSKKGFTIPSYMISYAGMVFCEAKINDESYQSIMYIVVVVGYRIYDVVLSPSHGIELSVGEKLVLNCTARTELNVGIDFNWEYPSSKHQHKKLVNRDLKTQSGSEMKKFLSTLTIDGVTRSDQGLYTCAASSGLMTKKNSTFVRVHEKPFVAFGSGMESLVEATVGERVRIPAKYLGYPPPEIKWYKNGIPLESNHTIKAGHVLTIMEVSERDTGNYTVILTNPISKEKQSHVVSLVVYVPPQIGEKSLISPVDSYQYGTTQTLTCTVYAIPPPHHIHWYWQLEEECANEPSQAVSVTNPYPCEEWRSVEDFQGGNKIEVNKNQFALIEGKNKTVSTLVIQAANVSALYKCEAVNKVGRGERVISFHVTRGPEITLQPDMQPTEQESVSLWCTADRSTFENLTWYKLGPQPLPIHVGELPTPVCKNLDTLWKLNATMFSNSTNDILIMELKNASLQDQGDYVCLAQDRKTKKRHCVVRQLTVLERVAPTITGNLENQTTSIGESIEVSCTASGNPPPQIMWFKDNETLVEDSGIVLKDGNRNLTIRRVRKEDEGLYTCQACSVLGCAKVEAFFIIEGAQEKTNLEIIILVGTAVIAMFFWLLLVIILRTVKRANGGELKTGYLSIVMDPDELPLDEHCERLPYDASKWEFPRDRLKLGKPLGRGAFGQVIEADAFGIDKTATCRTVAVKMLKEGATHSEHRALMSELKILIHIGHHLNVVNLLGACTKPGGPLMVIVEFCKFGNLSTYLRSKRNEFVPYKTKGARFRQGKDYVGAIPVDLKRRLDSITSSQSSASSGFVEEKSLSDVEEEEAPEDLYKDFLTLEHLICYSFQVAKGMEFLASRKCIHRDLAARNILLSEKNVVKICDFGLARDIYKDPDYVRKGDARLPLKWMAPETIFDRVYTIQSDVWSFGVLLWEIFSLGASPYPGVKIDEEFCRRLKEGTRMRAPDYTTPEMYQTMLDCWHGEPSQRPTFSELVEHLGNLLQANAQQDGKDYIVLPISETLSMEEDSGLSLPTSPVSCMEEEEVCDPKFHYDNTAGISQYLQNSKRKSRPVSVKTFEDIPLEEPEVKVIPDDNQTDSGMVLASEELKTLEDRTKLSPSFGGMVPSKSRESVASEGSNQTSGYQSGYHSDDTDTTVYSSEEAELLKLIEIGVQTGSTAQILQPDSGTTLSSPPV
How it was run: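 PAE cells overexpressing human KDR, serum-starved 16 h (0.1% FBS), treated with compound 1 h at 37° C (0.5% DMSO), then stimulated 8 min with 500 ng/ml VEGF plus 2 mM Na3VO4. Lysate KDR phosphotyrosine measured by capture ELISA (anti-pY HRP, 450 nm); IC50 by four-parameter fit.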

[1] = tested on: human umbilical vein endothelial cells (HUVEC); test: HUVEC+VEGF proliferation assay; assay type: cell-based; settings: VEGF 6 ng/mL, MTT
How it was run: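 HUVEC (passage 3-4), serum-starved 24 h in F12K + 1% FBS, were pre-treated with compound for 1 h (0.1% DMSO final). They were then stimulated with VEGF at 6 ng/mL final. Proliferation was measured after 72 h by MTT dye reduction (4 h), with absorbance read at 595 nm.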

T1 sequence (P09619 33-1106): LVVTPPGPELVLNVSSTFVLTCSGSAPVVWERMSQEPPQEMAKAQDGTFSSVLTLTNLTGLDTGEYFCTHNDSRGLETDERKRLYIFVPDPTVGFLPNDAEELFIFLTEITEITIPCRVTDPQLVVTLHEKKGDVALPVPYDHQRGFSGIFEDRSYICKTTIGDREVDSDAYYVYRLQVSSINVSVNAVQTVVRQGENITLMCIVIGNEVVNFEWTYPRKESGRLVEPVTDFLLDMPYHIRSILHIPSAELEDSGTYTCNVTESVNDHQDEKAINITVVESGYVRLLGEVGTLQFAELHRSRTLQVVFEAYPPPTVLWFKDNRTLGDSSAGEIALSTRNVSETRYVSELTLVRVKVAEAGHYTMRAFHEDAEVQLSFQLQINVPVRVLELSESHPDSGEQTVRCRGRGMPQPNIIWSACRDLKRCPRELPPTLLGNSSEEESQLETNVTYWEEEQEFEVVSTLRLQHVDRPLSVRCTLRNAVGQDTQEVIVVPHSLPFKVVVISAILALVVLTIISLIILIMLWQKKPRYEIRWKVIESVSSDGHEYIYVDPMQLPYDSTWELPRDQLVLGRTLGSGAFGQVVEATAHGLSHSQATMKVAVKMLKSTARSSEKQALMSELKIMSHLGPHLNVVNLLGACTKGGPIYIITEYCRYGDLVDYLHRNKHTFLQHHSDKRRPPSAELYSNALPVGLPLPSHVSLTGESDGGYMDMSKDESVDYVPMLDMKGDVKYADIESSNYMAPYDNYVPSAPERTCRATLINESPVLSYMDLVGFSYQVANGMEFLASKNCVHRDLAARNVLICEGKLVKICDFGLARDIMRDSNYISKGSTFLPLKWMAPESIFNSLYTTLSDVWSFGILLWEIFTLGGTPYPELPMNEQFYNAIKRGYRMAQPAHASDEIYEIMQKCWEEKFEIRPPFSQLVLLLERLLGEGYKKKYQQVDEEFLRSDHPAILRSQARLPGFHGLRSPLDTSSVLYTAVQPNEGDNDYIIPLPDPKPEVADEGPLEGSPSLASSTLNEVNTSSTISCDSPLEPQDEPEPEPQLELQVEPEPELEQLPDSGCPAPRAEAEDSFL

Work on `CNC(=O)n1c(C)cc2cc(Nc3ccnc4cc(C(=O)N5CCC[C@@H]5CO)sc34)ccc21` [Example 1a, 5-[2-(2R-Hydroxymethyl-pyrrolidine-1-carbonyl)-thieno[3,2-b]pyridin-7-ylamino]-2-methyl-indole-1-carboxylic acid methylamide] yielded an IC50 (PDGFRβ) of 239 nM, an IC50 (HUVEC; Homo sapiens, HUVEC) of 59 nM and an IC50 (KDR (VEGFR2)) of 1.06 nM. The IC50 ([1]; Homo sapiens, HUVEC, 72 h) was 0.91 nM.
For `CNC(=O)n1c(C)cc2cc(Oc3ccnc4cc(C(=O)N5CC[C@@H](OC)C5)sc34)ccc21` [Example 4j, 5-[2-(3R-Methoxy-pyrrolidine-1-carbonyl)-thieno[3,2-b]pyridin-7-yloxy]-2-methyl-indole-1-carboxylic acid methylamide], the IC50 (PDGFRβ) was 10 nM and 13 nM, the IC50 (HUVEC; Homo sapiens, HUVEC) was 2.5 nM and the IC50 (HUVEC) was 4.7 nM. The IC50 (KDR (VEGFR2)) was 0.86 nM and 0.35 nM and 0.34 nM and the IC50 ([1]; Homo sapiens, HUVEC, 72 h) was 0.088 nM.
Work on `CCCNC(=O)n1c(C)cc2cc(Oc3ccnc4cc(C(=O)N5CC[C@H](O)C5)sc34)ccc21` [Example 9i, 5-[2-(3S-Hydroxy-pyrrolidine-1-carbonyl)-thieno[3,2-b]pyridin-7-yloxy]-2-methyl-indole-1-carboxylic acid propylamide] yielded an IC50 (PDGFRβ) of 36 nM, an IC50 (HUVEC; Homo sapiens, HUVEC) of 5 nM and an IC50 (KDR (VEGFR2)) of 0.33 nM. For the same compound, the IC50 ([1]; Homo sapiens, HUVEC, 72 h) was 0.37 nM.
In the case of `C#CCNC(=O)n1c(C)cc2cc(Oc3ccnc4cc(C(=O)N5CCC[C@@H]5CO)sc34)ccc21` [Example 8q, 5-[2-(2R-Hydroxymethyl-pyrrolidine-1-carbonyl)-thieno[3,2-b]pyridin-7-yloxy]-2-methyl-indole-1-carboxylic acid prop-2-ynylamide], the IC50 (PDGFRβ) is reported as 29 nM and 13 nM, the IC50 (HUVEC; Homo sapiens, HUVEC) is reported as 95 nM and the IC50 (KDR (VEGFR2)) is reported as 0.45 nM and 0.19 nM. The IC50 ([1]; Homo sapiens, HUVEC, 72 h) was 0.19 nM.
`CNC(=O)n1c(C)cc2cc(Nc3ccnc4cc(C(=O)N5CC[C@@H](O)C5)sc34)ccc21` [Example 1n, 5-[2-(3R-Hydroxy-pyrrolidine-1-carbonyl)-thieno[3,2-b]pyridin-7-ylamino]-2-methyl-indole-1-carboxylic acid methylamide] was tested, and the IC50 (PDGFRβ) was > 1000 nM and 2600 nM, the IC50 (HUVEC; Homo sapiens, HUVEC) was 30.2 nM and the IC50 (HUVEC) was 19.4 nM. The IC50 (KDR (VEGFR2)) was 4.01 nM and 2.77 nM and the IC50 ([1]; Homo sapiens, HUVEC, 72 h) was 0.64 nM.
In the case of `CCOC(=O)c1csc(-c2cc3nccc(Nc4ccc5c(c4)cc(C)n5C(=O)NC)c3s2)n1` [Example 3c, 2-[7-(2-Methyl-1-methylcarbamoyl-1H-indol-5-ylamino)-thieno[3,2-b]pyridin-2-yl]-thiazole-4-carboxylic acid ethyl ester], the IC50 (PDGFRβ) is reported as 631 nM, the IC50 (HUVEC; Homo sapiens, HUVEC) is reported as 184 nM and the IC50 (HUVEC) is reported as 262 nM. The IC50 (KDR (VEGFR2)) was 0.1 nM and 0.041 nM and the IC50 ([1]; Homo sapiens, HUVEC, 72 h) was 2.33 nM.
With `COC[C@@H]1CCCN1C(=O)c1cc2nccc(Nc3ccc4c(c3)cc(C)n4C(=O)NC3CC3)c2s1` [Example 2c, 5-(2-[(S)-2-(methoxymethyl)pyrrolidine-1-carbonyl]thieno[3,2-b]pyridin-7-ylamino)-2-methylindole-1-carboxylic acid cyclopropylamide] the IC50 (PDGFRβ) was 84 nM and 105 nM and 87 nM, the IC50 (HUVEC; Homo sapiens, HUVEC) was 41 nM and the IC50 (HUVEC) was 27 nM and 33 nM and 24 nM and 40 nM. The IC50 (KDR (VEGFR2)) was 0.67 nM and 0.42 nM (2×) and the IC50 ([1]; Homo sapiens, HUVEC, 72 h) was 0.44 nM.
For `Cc1cc2cc(Oc3ccnc4cc(C(=O)N5CC[C@H](O)C5)sc34)ccc2n1C(=O)NCCCO` [Example 9l, 5-[2-(3S-Hydroxy-pyrrolidine-1-carbonyl)-thieno[3,2-b]pyridin-7-yloxy]-2-methyl-indole-1-carboxylic acid (3-hydroxy-propyl)-amide], the IC50 (PDGFRβ) was 216 nM, the IC50 (HUVEC; Homo sapiens, HUVEC) was 37.6 nM and the IC50 (KDR (VEGFR2)) was 0.76 nM and 0.51 nM. The IC50 ([1]; Homo sapiens, HUVEC, 72 h) was 0.27 nM.
Compound `CO[C@@H]1C[C@@H](CO)N(C(=O)c2cc3cccc(Nc4ccc5c(c4)cc(C)n5C(=O)NC4CC4)c3s2)C1` [Example 3g, 5-[2-((2S,4R)-2-Hydroxymethyl-4-methoxy-pyrrolidine-1-carbonyl)-benzo[b]thiophen-7-ylamino]-2-methyl-indole-1-carboxylic acid cyclopropylamide] has an IC50 (PDGFRβ) of over 1000 nM, an IC50 (HUVEC; Homo sapiens, HUVEC) of 656 nM and an IC50 (KDR (VEGFR2)) of 2.6 nM. The IC50 ([1]; Homo sapiens, HUVEC, 72 h) was 0.44 nM.
With `COC[C@H]1CCCN1C(=O)c1cc2nccc(Nc3ccc4c(c3)cc(C)n4C(=O)NC3CC3)c2s1` [Example 1d, 5-[2-(2R-Methoxymethyl-pyrrolidine-1-carbonyl)-thieno[3,2-b]pyridin-7-ylamino]-2-methyl-indole-1-carboxylic acid cyclopropylamide] the IC50 (PDGFRβ) was 42 nM and 45 nM and 74 nM, the IC50 (HUVEC; Homo sapiens, HUVEC) was 24 nM and the IC50 (HUVEC) was 23.4 nM. For the same compound, the IC50 (KDR (VEGFR2)) was 0.45 nM and 0.51 nM and the IC50 ([1]; 72 hours) was 0.56 nM.
`CNC(=O)n1c(C)cc2cc(Nc3ccnc4cc(C(=O)N5CCC[C@@H]5COC)sc34)ccc21` [Example 1b, 5-[2-(2R-Methoxymethyl-pyrrolidine-1-carbonyl)-thieno[3,2-b]pyridin-7-ylamino]-2-methyl-indole-1-carboxylic acid methylamide] was tested, and the IC50 (PDGFRβ) was 73 nM and 86 nM, the IC50 (HUVEC; Homo sapiens, HUVEC) was 80 nM and the IC50 (KDR (VEGFR2)) was 0.28 nM and 0.25 nM. It also gave an IC50 ([1]; Homo sapiens, HUVEC, 72 h) of 0.69 nM.
Work on `CNC(=O)n1c(C)cc2cc(Nc3cccc4cc(C(=O)N5C[C@H](OC)C[C@H]5CO)sc34)ccc21` [Example 3f, 5-[2-((2S,4R)-2-Hydroxymethyl-4-methoxy-pyrrolidine-1-carbonyl)-benzo[b]thiophen-7-ylamino]-2-methyl-indole-1-carboxylic acid methylamide] yielded an IC50 (PDGFRβ) of over 1000 nM, an IC50 (HUVEC; Homo sapiens, HUVEC) of 2050 nM and an IC50 (KDR (VEGFR2)) of 1.85 nM. The IC50 ([1]; Homo sapiens, HUVEC, 72 h) was 3.99 nM.
In the case of `C#CCNC(=O)n1c(C)cc2cc(Oc3ccnc4cc(C(=O)N5CC[C@@H](O)C5)sc34)ccc21` [Example 4o, 5-[2-(3R-Hydroxy-pyrrolidine-1-carbonyl)-thieno[3,2-b]pyridin-7-yloxy]-2-methyl-indole-1-carboxylic acid prop-2-ynylamide], the IC50 (PDGFRβ) is reported as 9 nM, the IC50 (HUVEC; Homo sapiens, HUVEC) is reported as 7.9 nM and the IC50 (KDR (VEGFR2)) is reported as 0.012 nM and 0.009 nM. For the same compound, the IC50 ([1]; Homo sapiens, HUVEC, 72 h) was 0.071 nM.
For `CNC(=O)n1c(C)cc2cc(Oc3ccnc4cc(C(=O)N5CC[C@H](O)C5)sc34)ccc21` [Example 9g, 5-[2-(3S-Hydroxy-pyrrolidine-1-carbonyl)-thieno[3,2-b]pyridin-7-yloxy]-2-methyl-indole-1-carboxylic acid methylamide], the IC50 (PDGFRβ) was 27 nM and 33 nM, the IC50 (HUVEC; Homo sapiens, HUVEC) was 45 nM and the IC50 (HUVEC) was 40 nM. For the same compound, the IC50 (KDR (VEGFR2)) was 0.29 nM and 0.86 nM and 0.34 nM.
In the case of `Cc1cc2cc(Nc3ccnc4cc(C(=O)N5CCC[C@H]5CO)sc34)ccc2n1C(=O)NC1CC1` [Example 2e, 5-(2-[(S)-2-(hydroxymethyl)pyrrolidine-1-carbonyl]thieno[3,2-b]pyridin-7-ylamino)-2-methylindole-1-carboxylic acid cyclopropylamide], the IC50 (PDGFRβ) is reported as over 1000 nM, the IC50 (HUVEC; Homo sapiens, HUVEC) is reported as 27.8 nM and the IC50 (HUVEC) is reported as 31.6 nM. For the same compound, the IC50 (KDR (VEGFR2)) was 1.32 nM and 1.38 nM and the IC50 ([1]; Homo sapiens, HUVEC, 72 h) was 0.5 nM.
Work on `C#CCNC(=O)n1c(C)cc2cc(Nc3ccnc4cc(C(=O)N5CC[C@@H](O)C5)sc34)ccc21` [Example 1o, 5-[2-(3R-Hydroxy-pyrrolidine-1-carbonyl)-thieno[3,2-b]pyridin-7-ylamino]-2-methyl-indole-1-carboxylic acid prop-2-ynylamide] yielded an IC50 (PDGFRβ) of 533 nM, an IC50 (HUVEC; Homo sapiens, HUVEC) of 49.6 nM and an IC50 (HUVEC) of 52 nM. It also gave an IC50 (KDR (VEGFR2)) of 1.6 nM and an IC50 ([1]; Homo sapiens, HUVEC, 72 h) of 0.34 nM.
With `CNC(=O)n1c(C)cc2cc(Oc3ccnc4cc(C(=O)N5C[C@H](OC)C[C@H]5CO)sc34)ccc21` [Example 3o, 5-[2-(2-Hydroxymethyl-4-methoxy-pyrrolidine-1-carbonyl)-thieno[3,2-b]pyridin-7-yloxy]-2-methyl-indole-1-carboxylic acid methylamide] the IC50 (PDGFRβ) was 599 nM and 126 nM, the IC50 (HUVEC; Homo sapiens, HUVEC) was 246 nM and the IC50 (KDR (VEGFR2)) was 0.43 nM and 0.52 nM. The IC50 ([1]; Homo sapiens, HUVEC, 72 h) was 0.24 nM.

— patent publication US6833456B2, “Indolyl-urea derivatives of thienopyridines useful as antiangiogenic agents, and methods for their use” (Agouron Pharmaceuticals, Inc., priority 2002, dated 2004)
